The results in this text go back to patent publication US20040116420A1 (priority 2001, published 2004).

One data set has as its target T1, HSV-1 protease (Human herpesvirus 1, UniProt P10210).
T1 construct: 6xHis (N); made in house; host or cells: baculovirus expression system
As to the kind of experiment: Enzymatic assay for HSV-1 protease (assembly) inhibitor, fluorescence polarization. The data set is classed as biochemical. The conditions noted are these: read-out: HSV-1 Enzyme inhibition IC50. In short, it runs like this:
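Fluorescence polarization read-out: after avidin stop, cleavage of a biotinylated DTAF-labelled release-site peptide by recombinant N-His6 HSV-1 protease was compared with no-inhibitor wells. Enzyme and compound were preincubated 30 min, then substrate reacted 60 min, all at room temperature, pH 7.4 citrate buffer with TCEP.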
For orientation: In fluorescence polarisation assays a small probe gives low polarisation when free and higher when bound to something large.

The test system of a further data set is HSV-1. As to the kind of experiment: Antiviral activity, HSV-1 in Vero cells, plaque method. Format: cell-based. To be noted: Human alphaherpesvirus 1, 20 hours, 90% inhibition of plaque formation. In short, it runs like this:
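This is a virus-yield read-out. The culture medium was frozen at −80° C and thawed, and the plaques it formed were counted. It came from Vero monolayers infected with 50,000 pfu HSV-1 and then exposed to the compound for 20 h at 37° C. EC90 is the concentration inhibiting 90% of plaque formation relative to the untreated infected control.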

Another data set has as its system Vero cells. As to the kind of experiment: Cytotoxicity, Vero cells, Alamar Blue. The data set is classed as cell-based. The conditions noted are these: 25 μM, 20 hours. The procedure, abridged: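 Living-cell ratio versus untreated control was read by Alamar Blue absorbance after about 6 h of dye incubation. Before that, Vero cells had received 25 μM test compound in 2% FBS-DMEM for 20 hours at 37 °C under 5% CO2.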
(Resazurin is reduced to fluorescent resorufin, in cell work by metabolically active cells.)

For orientation: IC50 means the concentration that inhibits the measured activity by half. The EC90 is the concentration at which the effect reaches the 90% level. Read a high EC90 as weaker potency.

T1 sequence (P10210 1-247): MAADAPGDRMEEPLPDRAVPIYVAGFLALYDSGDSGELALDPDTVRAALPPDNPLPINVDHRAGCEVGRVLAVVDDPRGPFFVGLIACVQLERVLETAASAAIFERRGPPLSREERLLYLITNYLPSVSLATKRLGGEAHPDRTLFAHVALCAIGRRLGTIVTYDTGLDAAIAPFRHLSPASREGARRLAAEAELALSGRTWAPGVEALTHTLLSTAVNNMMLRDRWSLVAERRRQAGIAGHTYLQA

As for `COc1ccccc1C(=O)Nc1ccc2nc(NC(C)(C)C(=O)N(C)CCc3ccccn3)oc(=O)c2c1C` [Compound No.161, 2-Methoxy-N-(5-methyl-2-{1-methyl-1-[methyl-(2-pyridin-2-yl-ethyl)-carbamoyl]-ethylamino}-4-oxo-4H-benzo[d][1,3]oxazin-6-yl)-benzamide], the half-inhibitory concentration (IC50) at HSV-1 protease was determined as 2.8 µM. In the data set on HSV-1, this compound registered a 90% effect concentration (EC90) of 11.4 µM. Besides, the “Cell viability (% of control)” value in the data set with Vero cells came to 44.1%.

For the compound `CCc1ccc(C(=O)Nc2ccc3nc(NC(C)(C)C(=O)N(C)CCc4ccccn4)oc(=O)c3c2C)cc1` [Compound No.187, 4-Ethyl-N-(5-methyl-2-{1-methyl-1-[methyl-(2-pyridin-2-yl-ethyl)-carbamoyl]-ethylamino}-4-oxo-4H-benzo[d][1,3]oxazin-6-yl)-benzamide], the IC50 on HSV-1 protease came out at 1.1 µM. Moreover, in the data set with HSV-1, the EC90 amounted to 4.5 µM. Further, the “Cell viability (% of control)” value in the data set on Vero cells came to 65.8%.

On to `Cc1c(NC(=O)c2ccccc2COC(=O)c2ccccc2)ccc2nc(NC(C)(C)C(=O)N(C)CCc3ccccn3)oc(=O)c12` [Compound No.186, Benzoic acid 2-(5-methyl-2-{1-methyl-1-[methyl-(2-pyridin-2-yl-ethyl)-carbamoyl]-ethylamino}-4-oxo-4H-benzo[d][1,3]oxazin-6-ylcarbamoyl)-benzyl ester], for which the IC50 on HSV-1 protease turned out to be 1 µM. Also, the 90% effect level with HSV-1 (EC90) was put at 3.5 µM. The “Cell viability (% of control)” value with Vero cells amounted to 18.1%.

For the compound `Cc1c(NC(=O)OC(C)(C)C)ccc2nc(N[C@@H](CC3CCCCC3)C(=O)N(C)CCc3ccncc3)oc(=O)c12` [Compound No.55, (2-{2-Cyclohexyl-1S-[methyl-(2-pyridin-4-yl-ethyl)-carbamoyl]-ethylamino}-5-methyl-4-oxo-4H-benzo[d][1,3]oxazin-6-yl)-carbamic acid tert-butyl ester], the IC50 at HSV-1 protease was 7.4 µM. Moreover, the concentration for an effect of 90% (EC90) in the data set on HSV-1 amounted to 5.9 µM. Further, in the data set on Vero cells, the “Cell viability (% of control)” value came to 43.8%.

Take `Cc1c(NC(=O)C2CCC2)ccc2nc(NC(C)(C)C(=O)N(C)CCc3ccccn3)oc(=O)c12` [Compound No.198, Cyclobutanecarboxylic acid (5-methyl-2-{1-methyl-1-[methyl-(2-pyridin-2-yl-ethyl)-carbamoyl]-ethylamino}-4-oxo-4H-benzo[d][1,3]oxazin-6-yl)-amide]: the concentration for half-maximal inhibition (IC50) on HSV-1 protease amounted to 3.6 µM. In the data set on HSV-1, this compound had an EC90 not below 12.5 µM. In addition, in the data set on Vero cells, the “Cell viability (% of control)” value was determined as 99.2%.

In the case of `Cc1c(NC(=O)c2ccc(-c3ccccc3)cc2)ccc2nc(NC(C)(C)C(=O)N(C)CCc3ccccn3)oc(=O)c12` [Compound No.169, Biphenylyl-4-carboxylic acid (5-methyl-2-{1-methyl-1-[methyl-(2-pyridin-2-yl-ethyl)-carbamoyl]-ethylamino}-4-oxo-4H-benzo[d][1,3]oxazin-6-yl)-amide], the IC50 at HSV-1 protease was 1 µM. The 90% effect level in the data set with HSV-1 (EC90) was put at 5.7 µM. For the same compound, in the data set on Vero cells, the “Cell viability (% of control)” value turned out to be 7.0%.

Turning to `Cc1c(NC(=O)c2cccc(Br)c2)ccc2nc(NC(C)(C)C(=O)N(C)CCc3ccccn3)oc(=O)c12` [Compound No.200, 3-Bromo-N-(5-methyl-2-{1-methyl-1-[methyl-(2-pyridin-2-yl-ethyl)-carbamoyl]-ethylamino}-4-oxo-4H-benzo[d][1,3]oxazin-6-yl)-benzamide], at HSV-1 protease, the IC50 came out at 1.6 µM. This compound came in with an EC90 in the data set with HSV-1 of 3.2 µM. Besides, the “Cell viability (% of control)” value with Vero cells is recorded as 21.5%.

As for `Cc1c(NC(=O)C(C)(C)C)ccc2nc(NC(C)(C)C(=O)N(C)CCc3ccccn3)oc(=O)c12` [Compound No.136, 2,2-Dimethyl-N-(5-methyl-2-{1-methyl-1-[methyl-(2-pyridin-2-yl-ethyl)-carbamoyl]-ethylamino}-4-oxo-4H-benzo[d][1,3]oxazin-6-yl)-propionamide], the IC50 on HSV-1 protease is 4.5 µM. Besides, the EC90 with HSV-1 was more than 12.5 µM. The “Cell viability (% of control)” value in the data set on Vero cells stood at 81.8%.

As for `Cc1cc(C(=O)Nc2ccc3nc(NC(C)(C)C(=O)N(C)CCc4ccccn4)oc(=O)c3c2C)c(C(F)(F)F)o1` [Compound No.175, 5-Methyl-2-trifluoromethyl-furan-3-carboxylic acid (5-methyl-2-{1-methyl-1-[methyl-(2-pyridin-2-yl-ethyl)-carbamoyl]-ethylamino}-4-oxo-4H-benzo [d][1,3]oxazin-6-yl)-amide], the half-inhibitory concentration (IC50) on HSV-1 protease was 2.5 µM. This compound also came in with an EC90 with HSV-1 of more than 12.5 µM. Besides, the “Cell viability (% of control)” value with Vero cells was found to be 99.4%.

Regarding `Cc1c(NC(=O)OC(C)(C)C)ccc2nc(N[C@H](C(=O)N(C)Cc3ccccn3)C(C)C)oc(=O)c12` [Compound No.61, {5-Methyl-2-[2-methyl-1S-(methyl-pyridin-2-ylmethyl-carbamoyl)-propylamino]-4-oxo-4H-benzo[d][1,3]oxazin-6-yl}-carbamic acid tert-butyl ester], the IC50 at HSV-1 protease turned out to be 3.3 µM. In the data set on HSV-1, this compound gave an EC90 of 4.7 µM. In the data set on Vero cells, the “Cell viability (% of control)” value is 107.0%.

As for `Cc1c(NC(=O)C2CCCC2)ccc2nc(NC(C)(C)C(=O)N(C)CCc3ccccn3)oc(=O)c12` [Compound No.188, Cyclopentanecarboxylic acid (5-methyl-2-{1-methyl-1-[methyl-(2-pyridin-2-yl-ethyl)-carbamoyl]-ethylamino}-4-oxo-4H-benzo[d][1,3]oxazin-6-yl)-amide], at HSV-1 protease, the IC50 was 1.4 µM. Further, the EC90 in the data set with HSV-1 was more than 12.5 µM. Also, the “Cell viability (% of control)” value in the data set on Vero cells turned out to be 91.7%.

Regarding `Cc1c(NC(=O)c2ccccc2)ccc2nc(NC(C)(C)C(=O)N(C)CCc3ccccn3)oc(=O)c12` [Compound No.138, N-(5-Methyl-2-{1-methyl-1-[methyl-(2-pyridin-2-yl-ethyl)-carbamoyl]-ethylamino}-4-oxo-4H-benzo[d][1,3]oxazin-6-yl)-benzamide], the IC50 at HSV-1 protease was 2.8 µM. In the data set on HSV-1, this compound came in with an EC90 of more than 12.5 µM. Further, the “Cell viability (% of control)” value in the data set on Vero cells is 84.4%.

With `Cc1c(NC(=O)C(C)C)ccc2nc(NC(C)(C)C(=O)N(C)CCc3ccccn3)oc(=O)c12` [Compound No.195, 2-(6-Isobutyrylamino-5-methyl-4-oxo-4H-benzo[d][1,3]oxazin-2-ylamino)-2,N-dimethyl-N-(2-pyridin-2-yl-ethyl)-propionamide], the IC50 on HSV-1 protease stood at 2.1 µM. In the data set with HSV-1, this compound showed an EC90 not below 12.5 µM. Besides, the “Cell viability (% of control)” value in the data set on Vero cells was found to be 99.7%.

`Cc1c(NC(=O)OC(C)(C)C)ccc2nc(N(C)[C@@H](Cc3ccccc3)C(=O)N(C)CCc3ccncc3)oc(=O)c12` [Compound No.85, [5-Methyl-2-(methyl-{1S-[methyl-(2-pyridin-4-yl-ethyl)-carbamoyl]-2-phenyl-ethyl}-amino)-4-oxo-4H-benzo[d][1,3]oxazin-6-yl]-carbamic acid tert-butyl ester]: the IC50 on HSV-1 protease was 2.3 µM. In addition, the concentration for an effect of 90% (EC90) in the data set on HSV-1 came to 11.7 µM. The “Cell viability (% of control)” value in the data set on Vero cells worked out at 60.7%.

For `Cc1c(NC(=O)OC(C)(C)C)ccc2nc(N[C@H](C(=O)N(C)CCc3cccnc3)C(C)(C)C)oc(=O)c12` [Compound No.66, (2-{2,2-Dimethyl-1S-[methyl-(2-pyridin-3-yl-ethyl)-carbamoyl]-propylamino}-5-methyl-4-oxo-4H-benzo[d][1,3]oxazin-6-yl)-carbamic acid tert-butyl ester], the IC50 on HSV-1 protease worked out at 14 µM. The EC90 in the data set with HSV-1 was 4.6 µM. The “Cell viability (% of control)” value in the data set with Vero cells is 81.5%.

Regarding `Cc1c(NC(=O)OC(C)(C)C)ccc2nc(N[C@@H](CC3CCCCC3)C(=O)NCc3ccncc3)oc(=O)c12` [Compound No.28, (2-{2-Cyclohexyl-1S-[(pyridin-4-ylmethyl)-carbamoyl]-ethylamino}-5-methyl-4-oxo-4H-benzo[d][1,3]oxazin-6-yl)-carbamic acid tert-butyl ester], at HSV-1 protease, the IC50 was determined as 4.4 µM. The same compound showed an EC90 with HSV-1 of less than 6.3 µM. For the same compound, the “Cell viability (% of control)” value in the data set on Vero cells is 70.0%.

For `Cc1c(NC(=O)OC(C)(C)C)ccc2nc(N3Cc4ccccc4C[C@H]3C(=O)N(C)CCc3cccnc3)oc(=O)c12` [Compound No.100, (5-Methyl-2-{3S-[methyl-(2-pyridin-3-yl-ethyl)-carbamoyl]-3,4-dihydro-1H-isoquinolin-2-yl}-4-oxo-4H-benzo[d][1,3]oxazin-6-yl)-carbamic acid tert-butyl ester], the IC50 on HSV-1 protease came to 9.7 µM. Also, the EC90 in the data set on HSV-1 was 11.8 µM. Besides, in the data set on Vero cells, the “Cell viability (% of control)” value was determined as 44.1%.

In the case of `Cc1c(NC(=O)OC(C)(C)C)ccc2nc(N3C[C@H](OCc4ccccc4)C[C@H]3C(=O)N(C)CCc3ccccn3)oc(=O)c12` [Compound No.114, (2-{4R-Benzyloxy-2S-[methyl-(2-pyridin-2-yl-ethyl)-carbamoyl]-pyrrolidin-1-yl}-5-methyl-4-oxo-4H-benzo[d][1,3]oxazin-6-yl)-carbamic acid tert-butyl ester], the IC50 on HSV-1 protease is more than 10 µM. The same compound came in with an EC90 in the data set on HSV-1 of 5.9 µM. Further, the “Cell viability (% of control)” value in the data set with Vero cells is listed as 76.5%.

With `Cc1c(NC(=O)OC(C)(C)C)ccc2nc(N[C@@H](CC(C)C)C(=O)N(C)CCc3ccncc3)oc(=O)c12` [Compound No.54, (5-Methyl-2-{3-methyl-1S-[methyl-(2-pyridin-4-yl-ethyl)-carbamoyl]-butylamino}-4-oxo-4H-benzo[d][1,3]oxazin-6-yl)-carbamic acid tert-butyl ester], at HSV-1 protease, the IC50 turned out to be 1.8 µM. The same compound returned a concentration for an effect of 90% (EC90) in the data set on HSV-1 of 6.2 µM. Moreover, the “Cell viability (% of control)” value with Vero cells was 62.8%.
